From patent US20110086759A1, “CHEMICAL COMPOUNDS” (SYNGENTA CROP PROTECTION, INC., priority 2007, published 2011)

Experiments:
Format in all cases: in vivo
[1] = tested on: Ipomea hederaceae (IPOHE); experiment: Post-emergence biological efficacy, glasshouse pot test; conditions: Ipomoea hederacea, 312 h
In short: (§1)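 Scored 13 days after spraying on a 0 (no damage) to 100 (total damage) scale. Treatment was a post-emergence spray at 1000 or 250 g/ha, from acetone/water 50:50 plus 0.5% Tween 20, onto 8-day-old plants in soil pots. Growth at 24/16° C, 14 h photoperiod, 65% humidity, watered twice daily.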

[2] = tested on: Setaria faberi (SETFA); experiment: as above; conditions: 312 h
In short: as §1

[3] = tested on: Solanum nigrum (SOLNI); experiment: as above; conditions: 312 h
In short: as §1

[4] = tested on: Amaranthus retoflexus (AMARE); experiment: as above; conditions: Amaranthus retroflexus, 312 h
In short: as §1

[5] = tested on: Echinochloa crus-galli (ECHCG); experiment: as above; conditions: 312 h
In short: as §1

[6] = tested on: Alopecurus myosuroides (ALOMY); experiment: as above; conditions: 312 h
In short: as §1

[7] = tested on: Ipomea hederaceae (IPOHE); experiment: Pre-emergence biological efficacy, glasshouse pot test; conditions: Ipomoea hederacea, 312 h
In short: (§2)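 Damage was rated on a 0–100 scale 13 days after treatment, with plants kept at 24/16° C, 14 h light and 65% humidity. The pre-emergence spray, at 1000 or 250 g/ha in acetone/water 50:50 with 0.5% Tween 20, was applied one day after sowing.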

[8] = tested on: Setaria faberi (SETFA); experiment: as above; conditions: 312 h
In short: as §2

[9] = tested on: Solanum nigrum (SOLNI); experiment: as above; conditions: 312 h
In short: as §2

[10] = tested on: Amaranthus retoflexus (AMARE); experiment: as above; conditions: Amaranthus retroflexus, 312 h
In short: as §2

[11] = tested on: Echinochloa crus-galli (ECHCG); experiment: as above; conditions: 312 h
In short: as §2

[12] = tested on: Alopecurus myosuroides (ALOMY); experiment: as above; conditions: 312 h
In short: as §2

[13] = Rate 1,000 g/ha, post-emergence spray, evaluated after 13 days (100=total damage to plant; 0=no damage to plant), read-out: Percentage damage caused to weed species, post-emergence, IPOHE
[14] = Rate 1,000 g/ha, post-emergence spray, evaluated after 13 days (100=total damage to plant; 0=no damage to plant), read-out: Percentage damage caused to weed species, post-emergence, SETFA
[15] = Rate 1,000 g/ha, post-emergence spray, evaluated after 13 days (100=total damage to plant; 0=no damage to plant), read-out: Percentage damage caused to weed species, post-emergence, SOLNI
[16] = Rate 1,000 g/ha, post-emergence spray, evaluated after 13 days (100=total damage to plant; 0=no damage to plant), read-out: Percentage damage caused to weed species, post-emergence, AMARE
[17] = Rate 1,000 g/ha, post-emergence spray, evaluated after 13 days (100=total damage to plant; 0=no damage to plant), read-out: Percentage damage caused to weed species, post-emergence, ECHCG
[18] = Rate 1,000 g/ha, post-emergence spray, evaluated after 13 days (100=total damage to plant; 0=no damage to plant), read-out: Percentage damage caused to weed species, post-emergence, ALOMY
[19] = pre-emergence, rate 1,000 g/ha, evaluated after 13 days (100=total damage to plant; 0=no damage), read-out: Percentage damage caused to weed species, IPOHE
[20] = pre-emergence, rate 1,000 g/ha, evaluated after 13 days (100=total damage to plant; 0=no damage), read-out: Percentage damage caused to weed species, SETFA
[21] = pre-emergence, rate 1,000 g/ha, evaluated after 13 days (100=total damage to plant; 0=no damage), read-out: Percentage damage caused to weed species, SOLNI
[22] = pre-emergence, rate 1,000 g/ha, evaluated after 13 days (100=total damage to plant; 0=no damage), read-out: Percentage damage caused to weed species, AMARE
[23] = pre-emergence, rate 1,000 g/ha, evaluated after 13 days (100=total damage to plant; 0=no damage), read-out: Percentage damage caused to weed species, ECHCG
[24] = pre-emergence, rate 1,000 g/ha, evaluated after 13 days (100=total damage to plant; 0=no damage), read-out: Percentage damage caused to weed species, ALOMY
[25] = post-emergence, 1,000 g/ha, evaluated after 13 days (100=total damage; 0=no damage), read-out: Percentage damage caused to weed species, IPOHE
[26] = post-emergence, 1,000 g/ha, evaluated after 13 days (100=total damage; 0=no damage), read-out: Percentage damage caused to weed species, SETFA
[27] = post-emergence, 1,000 g/ha, evaluated after 13 days (100=total damage; 0=no damage), read-out: Percentage damage caused to weed species, SOLNI
[28] = post-emergence, 1,000 g/ha, evaluated after 13 days (100=total damage; 0=no damage), read-out: Percentage damage caused to weed species, AMARE
[29] = post-emergence, 1,000 g/ha, evaluated after 13 days (100=total damage; 0=no damage), read-out: Percentage damage caused to weed species, ECHCG
[30] = post-emergence, 1,000 g/ha, evaluated after 13 days (100=total damage; 0=no damage), read-out: Percentage damage caused to weed species, ALOMY
[31] = pre-emergence, 1,000 g/ha, evaluated after 13 days (100=total damage; 0=no damage), read-out: Percentage damage IPOHE
[32] = pre-emergence, 1,000 g/ha, evaluated after 13 days (100=total damage; 0=no damage), read-out: Percentage damage SETFA
[33] = pre-emergence, 1,000 g/ha, evaluated after 13 days (100=total damage; 0=no damage), read-out: Percentage damage SOLNI
[34] = pre-emergence, 1,000 g/ha, evaluated after 13 days (100=total damage; 0=no damage), read-out: Percentage damage AMARE
[35] = pre-emergence, 1,000 g/ha, evaluated after 13 days (100=total damage; 0=no damage), read-out: Percentage damage ECHCG
[36] = pre-emergence, 1,000 g/ha, evaluated after 13 days (100=total damage; 0=no damage), read-out: Percentage damage ALOMY

Compound: COC(=O)c1nc(C2CC2)nc(N(CCO)Cc2ccc(Cl)nc2)c1Cl [Compound 157-157, 5-Chloro-4-[N-(6-chloropyrid-3-ylmethyl)-N-2-hydroxyethyl-amino]-2-cyclopropyl-6-methoxycarbonyl-pyrimidine]
- pest or weed control at 1000 g/ha [1, 13]: 50%
- pest or weed control at 1000 g/ha [2, 14]: 0%
- pest or weed control at 1000 g/ha [3, 15]: 30%
- pest or weed control at 1000 g/ha [4, 16]: 50%
- pest or weed control at 1000 g/ha [5, 17]: 0%
- pest or weed control at 1000 g/ha [6, 18]: 0%
- pest or weed control at 1000 g/ha [7, 19]: 40%
- pest or weed control at 1000 g/ha [8, 20]: 30%
- pest or weed control at 1000 g/ha [9, 21]: 100%
- pest or weed control at 1000 g/ha [10, 22]: 100%
- pest or weed control at 1000 g/ha [11, 23]: 20%
- pest or weed control at 1000 g/ha [12, 24]: 10%

Compound: COC(=O)c1nc(-c2ccc(Cl)cc2C)nc(NCc2ccco2)c1Cl [Compound 213-48, 5-Chloro-2-(4-chloro-2-methylphenyl)-4-(furan-2-yl-methyl-amino)-6-methoxy-carbonylpyrimidine]
- pest or weed control at 1000 g/ha [1, 13]: 0%
- pest or weed control at 1000 g/ha [2, 14]: 10%
- pest or weed control at 1000 g/ha [3, 15]: 10%
- pest or weed control at 1000 g/ha [4, 16]: 100%
- pest or weed control at 1000 g/ha [5, 17]: 0%
- pest or weed control at 1000 g/ha [6, 18]: 0%
- pest or weed control at 1000 g/ha [7, 19]: 0%
- pest or weed control at 1000 g/ha [8, 20]: 10%
- pest or weed control at 1000 g/ha [9, 21]: 0%
- pest or weed control at 1000 g/ha [10, 22]: 70%
- pest or weed control at 1000 g/ha [11, 23]: 0%
- pest or weed control at 1000 g/ha [12, 24]: 10%

Compound: COC(=O)c1nc(C2CC2)nc(NCCc2cc(C(F)(F)F)cc(Cl)n2)c1Cl [Compound 4-229, 5-Chloro-4-[2-(6-chloro-4-trifluoromethyl-pyrid-2-yl)ethylamino]-2-cyclopropyl-6-methoxycarbonyl-pyrimidine]
- pest or weed control at 1000 g/ha [1, 25]: 60%
- pest or weed control at 1000 g/ha [2, 26]: 70%
- pest or weed control at 1000 g/ha [3, 27]: 90%
- pest or weed control at 1000 g/ha [4, 28]: 100%
- pest or weed control at 1000 g/ha [5, 29]: 20%
- pest or weed control at 1000 g/ha [6, 30]: 10%
- pest or weed control at 1000 g/ha [7, 31]: 20%
- pest or weed control at 1000 g/ha [8, 32]: 10%
- pest or weed control at 1000 g/ha [9, 33]: 20%
- pest or weed control at 1000 g/ha [10, 34]: 30%
- pest or weed control at 1000 g/ha [11, 35]: 0%
- pest or weed control at 1000 g/ha [12, 36]: 0%

Compound: COC(=O)c1nc(C2CC2)nc(NCCC(=O)OCc2ccccc2)c1Cl [Compound 4-266, 5-Chloro-2-cyclopropyl-6-methoxycarbonyl-4-[2-(phenylmethoxy-carbonyl)ethyl-amino]-pyrimidine]
- pest or weed control at 1000 g/ha [1, 25]: 100%
- pest or weed control at 1000 g/ha [2, 26]: 70%
- pest or weed control at 1000 g/ha [3, 27]: 80%
- pest or weed control at 1000 g/ha [4, 28]: 100%
- pest or weed control at 1000 g/ha [5, 29]: 50%
- pest or weed control at 1000 g/ha [6, 30]: 60%
- pest or weed control at 1000 g/ha [7, 31]: 100%
- pest or weed control at 1000 g/ha [8, 32]: 60%
- pest or weed control at 1000 g/ha [9, 33]: 100%
- pest or weed control at 1000 g/ha [10, 34]: 100%
- pest or weed control at 1000 g/ha [11, 35]: 60%
- pest or weed control at 1000 g/ha [12, 36]: 50%

Compound: COC(=O)c1nc(C2CC2)nc(NCc2cc(F)c(F)cc2F)c1Cl [Compound 4-120, 5-Chloro-2-cyclopropyl-6-methoxycarbonyl-4-(2,4,5-trifluoro-phenylmethyl-amino)pyrimidine]
- pest or weed control at 1000 g/ha [1, 25]: 100%
- pest or weed control at 1000 g/ha [2, 26]: 90%
- pest or weed control at 1000 g/ha [3, 27]: 100%
- pest or weed control at 1000 g/ha [4, 28]: 100%
- pest or weed control at 1000 g/ha [5, 29]: 60%
- pest or weed control at 1000 g/ha [6, 30]: 20%
- pest or weed control at 1000 g/ha [7, 31]: 40%
- pest or weed control at 1000 g/ha [8, 32]: 10%
- pest or weed control at 1000 g/ha [9, 33]: 50%
- pest or weed control at 1000 g/ha [10, 34]: 60%
- pest or weed control at 1000 g/ha [11, 35]: 20%
- pest or weed control at 1000 g/ha [12, 36]: 10%

Compound: COC(=O)c1nc(C2CC2)nc(NCC(F)c2ccc(Br)cc2)c1Cl (stereo not drawn) [Compound 4-236, 4-[2-(4-Bromophenyl)-2-fluoro-ethylamino]-5-chloro-2-cyclopropyl-6-methoxycarbonyl-pyrimidine]
- pest or weed control at 1000 g/ha [1, 25]: 60%
- pest or weed control at 1000 g/ha [2, 26]: 40%
- pest or weed control at 1000 g/ha [3, 27]: 70%
- pest or weed control at 1000 g/ha [4, 28]: 100%
- pest or weed control at 1000 g/ha [5, 29]: 0%
- pest or weed control at 1000 g/ha [6, 30]: 0%
- pest or weed control at 1000 g/ha [7, 31]: 0%
- pest or weed control at 1000 g/ha [8, 32]: 0%
- pest or weed control at 1000 g/ha [9, 33]: 60%
- pest or weed control at 1000 g/ha [10, 34]: 0%
- pest or weed control at 1000 g/ha [11, 35]: 0%
- pest or weed control at 1000 g/ha [12, 36]: 0%

Compound: COC(=O)c1nc(C2CC2)nc(NCC(C)(F)c2ccc(Cl)cc2Cl)c1Cl (stereo not drawn) [Compound 4-243, 5-Chloro-2-cyclopropyl-4-[2-(2,4-dichlorophenyl)-2-fluoro-propylamino]-6-methoxycarbonyl-pyrimidine]
- pest or weed control at 1000 g/ha [1, 25]: 60%
- pest or weed control at 1000 g/ha [2, 26]: 20%
- pest or weed control at 1000 g/ha [3, 27]: 70%
- pest or weed control at 1000 g/ha [4, 28]: 80%
- pest or weed control at 1000 g/ha [5, 29]: 10%
- pest or weed control at 1000 g/ha [6, 30]: 0%
- pest or weed control at 1000 g/ha [7, 31]: 0%
- pest or weed control at 1000 g/ha [8, 32]: 0%
- pest or weed control at 1000 g/ha [9, 33]: 10%
- pest or weed control at 1000 g/ha [10, 34]: 40%
- pest or weed control at 1000 g/ha [11, 35]: 0%
- pest or weed control at 1000 g/ha [12, 36]: 0%

Compound: CC(C)COC(=O)c1nc(C2CC2)nc(NCc2ccco2)c1Cl [Compound 199-125, 5-Chloro-2-cyclopropyl-4-(2-furanylmethyl-amino)-6-iso-butoxycarbonyl-pyrimidine]
- pest or weed control at 1000 g/ha [1, 13]: 100%
- pest or weed control at 1000 g/ha [2, 14]: 70%
- pest or weed control at 1000 g/ha [3, 15]: 80%
- pest or weed control at 1000 g/ha [4, 16]: 100%
- pest or weed control at 1000 g/ha [5, 17]: 70%
- pest or weed control at 1000 g/ha [6, 18]: 20%
- pest or weed control at 1000 g/ha [7, 19]: 100%
- pest or weed control at 1000 g/ha [8, 20]: 80%
- pest or weed control at 1000 g/ha [9, 21]: 100%
- pest or weed control at 1000 g/ha [10, 22]: 100%
- pest or weed control at 1000 g/ha [11, 23]: 50%
- pest or weed control at 1000 g/ha [12, 24]: 40%
